Test system: NCI-H929 complex spheroids, viability % test/control
Assay: Anticancer human tumor NCI-H929 cell line growth inhibition [RAS];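 also: compound exposure lasted seven days before viability was read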
Settings: for IC50: curve of first compound; for viability, T/C: stronger effect = lower value
Description: RAS pathway inhibitors in Combinations in Complex Spheroids
A high-throughput screen of multi-cell type tumor spheroids was designed to identify active combinations of RAS pathway inhibitors and targeted small molecules. Complex spheroids include a stromal component modeled by human endothelial cells (HUVEC) and fibroblasts modeled by human mesenchymal stem cells (MSCs). The concentration ranges selected for each drug and investigational agent were based upon clinically achievable concentrations if the clinical Cmax of the agent was known.
Compounds. The drugs and investigational agents: abemaciclib (NSC768073), cobimetinib (NSC768068), divarasib (GDC6063, NSC841802), docetaxel (NSC628503), GDC-1971 (RLY-1971, NSC841576), gemcitabine (NSC613327), inavolisib (NSC800729), ipatasertib (NSC767898), KB-0742 (NSC834161), MRTX-1133 (NSC836407), osimertinib (NSC779217), RMC-4630 (NSC839698), RMC-6236 (NSC851965), RMC-6291 (NSC852671), Ro-3306 (NSC812927), sapanisertib (NSC764658), SN-38 (NSC673596), staurosporine (NSC755774), SY5609 (NSC837396), and tovorafenib (DAY101, NSC766906), were obtained from the National Cancer Institute (NCI) Developmental Therapeutics Program Chemical Repository. The FDA-approved anticancer drug set is available from the NCI Developmental Therapeutics Program. […] The stock solutions were prepared in dimethyl sulfoxide (DMSO, Sigma-Aldrich, St. Louis, MO, cat. D2650) at 800-fold the tested concentration and stored at -70 degrees C prior to their use. All drugs and investigational agents were tested over a range starting from a high concentration at or near the clinical Cmax and decreasing in half-log increments. If the clinical Cmax for an agent had not been determined, the highest concentration tested was 10 microM.
Cell Culture. All cells were maintained in an incubator at 37 degrees C and 5% CO2 with 95% humidity. The PDC lines were cultured according to standard operating procedures established by the NCI PDMR. All PDCs were thawed and cultured in Matrigel-coated flasks prepared with a working solution of 1X Ham's F-12 nutrient mix, without supplementation (Invitrogen, Waltham, MA, cat. 11765054), 100 U/mL penicillin-streptomycin (Invitrogen, cat. 15140122), and 2.5% Matrigel (Corning Inc., Corning, NY, cat. 354248) for the first three passages. The 362531-283-R-J2-PDC and 782815-120-R-J1-PDC lines were cultured in 6C/Colon 1B media, which includes advanced DMEM/F-12 (Thermo Fisher Scientific, cat. 12634028), 10 mM HEPES (Thermo Fisher Scientific, cat. 15630080), 1X GlutaMAX supplement (Thermo Fisher Scientific, cat. 35050061), 0.1 mg/mL primocin (InvivoGen, San Diego, CA, cat. ant-pm-2), 10% defined fetal bovine serum, heat inactivated (HyClone Laboratories Inc., Logan, UT, cat. SH30070.03HI), 50% L-WRN conditioned media (ATCC, cat. CRL-3276), 1.25 mM N-Acetyl-L-cysteine (Sigma-Aldrich, cat. A9165), 10 mM nicotinamide (Sigma-Aldrich, cat. N0636), 1X B-27 supplement (Thermo Fisher Scientific, cat. 17504044), 1X N-2 supplement (Thermo Fisher Scientific, cat. 17502048), 50 ng/mL human EGF (Thermo Fisher Scientific, cat. PHG0311), and 10 microM Y-27632 dihydrochloride (Tocris Bioscience, cat. 1254). The K12877-001-R-J1-PDC line was cultured in 6I media, which includes all 6C/Colon 1B media plus 10 ng/mL human FGF-10 (PeproTech, cat. 100-26), 1 ng/mL human FGF-2 (PeproTech, cat. 100-18B), 1 µM prostaglandin E2 (Tocris Bioscience, cat. 2296), […] hydrocortisone (Sigma-Aldrich, cat. H4001), and […] bovine insulin (Sigma-Aldrich, cat. I6634). The K86415-001-R-J1-PDC line was cultured in 6D media, which includes all 6C/Colon 1B media components minus the L-WRN conditioned media. The 485176-168-R4-J1-PDC was cultured in PANC media, which includes all 6C/Colon 1B media plus 100 ng/mL human FGF-10 (PeproTech, cat. 100-26), 500 nM SB-431542 (Selleckchem, cat. S1067), and 10 nM gastrin (Tocris Bioscience, cat. 3006). […]

CC(C)NCC(C(=O)N1CCN(c2ncnc3c2C(C)CC3O)CC1)c1ccc(Cl)cc1 (configuration not stated) + CCn1c(-c2cc(N3CCN(C)CC3)cnc2C(C)OC)c2c3cc(ccc31)-c1csc(n1)CC(NC(=O)C1CC1C)C(=O)N1CCCC(N1)C(=O)OCC(C)(C)C2
IC50 (second compound 0.000949 µM): 1720 nM | IC50 (second compound 0.003 µM): 1690 nM | IC50 (second compound 0.00949 µM): 652 nM | IC50 (second compound 0.03 µM): < 31.6 nM | IC50 (second compound 0.0949 µM): < 31.6 nM | IC50 (second compound 0.3 µM): < 31.6 nM | viability, T/C (second compound 0.000949 µM, first compound 0.0316 µM): 102% | viability, T/C (second compound 0.000949 µM, first compound 0.1 µM): 97.5% | viability, T/C (second compound 0.000949 µM, first compound 0.316 µM): 105% | viability, T/C (second compound 0.000949 µM, first compound 1 µM): 80.3% | viability, T/C (second compound 0.000949 µM, first compound 3.16 µM): 16% | viability, T/C (second compound 0.000949 µM, first compound 10 µM): 2.39% | viability, T/C (second compound 0.003 µM, first compound 0.0316 µM): 97.7% | viability, T/C (second compound 0.003 µM, first compound 0.1 µM): 102% | viability, T/C (second compound 0.003 µM, first compound 0.316 µM): 106% | viability, T/C (second compound 0.003 µM, first compound 1 µM): 82.3% | viability, T/C (second compound 0.003 µM, first compound 3.16 µM): 11.1% | viability, T/C (second compound 0.003 µM, first compound 10 µM): 1.27% | viability, T/C (second compound 0.00949 µM, first compound 0.0316 µM): 109% | viability, T/C (second compound 0.00949 µM, first compound 0.1 µM): 115% | viability, T/C (second compound 0.00949 µM, first compound 0.316 µM): 109% | viability, T/C (second compound 0.00949 µM, first compound 1 µM): 15.4% | viability, T/C (second compound 0.00949 µM, first compound 3.16 µM): 1.11% | viability, T/C (second compound 0.00949 µM, first compound 10 µM): 0.51% | viability, T/C (second compound 0.03 µM, first compound 0.0316 µM): 42.5% | viability, T/C (second compound 0.03 µM, first compound 0.1 µM): 23.2% | viability, T/C (second compound 0.03 µM, first compound 0.316 µM): 5.92% | viability, T/C (second compound 0.03 µM, first compound 1 µM): 1.07% | viability, T/C (second compound 0.03 µM, first compound 3.16 µM): 0.47% | viability, T/C (second compound 0.03 µM, first compound 10 µM): 0.39% | viability, T/C (second compound 0.0949 µM, first compound 0.0316 µM): 5.19% | viability, T/C (second compound 0.0949 µM, first compound 0.1 µM): 2.73% | viability, T/C (second compound 0.0949 µM, first compound 0.316 µM): 0.72% | viability, T/C (second compound 0.0949 µM, first compound 1 µM): 0.7% | viability, T/C (second compound 0.0949 µM, first compound 3.16 µM): 0.37% | viability, T/C (second compound 0.0949 µM, first compound 10 µM): 0.17% | viability, T/C (second compound 0.3 µM, first compound 0.0316 µM): 2.88% | viability, T/C (second compound 0.3 µM, first compound 0.1 µM): 1.14% | viability, T/C (second compound 0.3 µM, first compound 0.316 µM): 0.58% | viability, T/C (second compound 0.3 µM, first compound 1 µM): 0.57% | viability, T/C (second compound 0.3 µM, first compound 3.16 µM): 0.75% | viability, T/C (second compound 0.3 µM, first compound 10 µM): 0.24%
